The numbers were not newly measured in patent US20060276412A1, “METHODS AND COMPOSITIONS FOR MANAGING PSYCHOTIC DISORDERS” (priority 2005, published 2006), which cites them from elsewhere.

Each structure is given as a SMILES string.

Among the test systems are histaminic receptors; serotonin receptors; dopamine receptors.
Common to all, as to conditions: cited from earlier work
Data set [1] has as its system alpha-adrenergic receptors.

In the case of `O=C1Cc2cc(CCN3CCN(c4nsc5ccccc45)CC3)c(Cl)cc2N1` [ziprasidone], the “affinity for alpha-adrenergic receptors” value in data set [1] was “high affinity”. The “affinity for histaminic receptors” value in the data set with histaminic receptors was “medium affinity”. In addition, in the data set with serotonin receptors, the “affinity for serotonin receptors” value is on record as “high affinity”. In the data set on dopamine receptors, the “affinity for dopamine receptors” value is on record as “high affinity”.
